Experimental data reported in patent US20250295729A1, “NOVEL THERAPEUTIC METHODS OF USING PEPTIDOGLYCAN MUROPEPTIDES TO PROMOTE ATP SYNTHASE ACTIVITY AND MITOCHONDRIAL HOMEOSTASIS AND DEVELOPMENT” (The Regents of the University of Colorado, a body corporate, priority 2021, published 2025).

Experiments:
SOD-3::GFP = SOD-3::GFP oxidative stress reporter in worms; assay type: in vivo, C. elegans; conditions: worms fed erfK mutant E. coli
Experimental: (§1) C. elegans strains and maintenance: C. elegans strains were grown and maintained on nematode growth media (NGM) plates seeded with the Escherichia coli strain OP50 at 20° C. The following strains were obtained from Caenorhabditis Genetics Center (CGC): N2 Bristol (wild-type control strain), SJ4100: zcIs13 [Phsp-6::gfp] V, SJ4058: zcIs9 [Phsp-60::gfp+lin-15 (+)/V, SJ4197: zcIs39 [Pdve-1::dve-1::gfp] II, SJ4005: zcIs4 [Phsp-4::gfp] V, TJ375: gpIs1 [Phsp-16.2::gfp], AY101: acIs101 [PF35E12.5::gfp+rol-6(su1006)], AU133: agIs17 [Pmyo-2::mCherry+Pirg-1::gfp] IV, CF1553: muIs84 [(pAD76) sod-3p::GFP+rol-6(su1006)]. mai-2 (xm19) was obtained from Dr. R. E. Navarro (Universidad Nacional Autonoma de Mexico).
Chemical supplementation: The NAC (Fisher Scientific, ICN10009825) stock solution (500 mM) was made in ddH2O. For NAC supplementation, NAC solution was added in NGM agar to the final concentration of 50 mM. For iron supplementation, FeCl3 (Sigma, 236489) was dissolved in ddH2O to generate solutions of desired concentration (2 mM, 8 mM and 20 mM). […]
(§2) Microscopy: Analysis of fluorescence was performed under Nomarski optics on a Zeisis Axioplan2 microscope with a Zeiss AxioCam MRm CCD camera. […]
(§3) Quantification and Statistical analysis: ImageJ software was used for quantifying fluorescence intensity of various of reporters. […]

C. elegans [1] = assay: Developmental rate (growth delay) of worms fed PG mutant E. coli with supplementation; assay type: in vivo; conditions: supplement added
Experimental: E. coli Keio collection screen: Bacterial peptidoglycan (PG) metabolism-related genes were determined based on the published papers (Table 1) and the PG mutant sub-library was assembled from the Keio E. coli single mutant collection. Mutant bacteria strains, as well as the wild-type control strain BW25113, were cultured overnight in LB medium with 50 μg/ml kanamycin in 96-well plates at 37° C. 100 μl of the overnight E. coli cultures were spotted onto 6 cm NGM plates and dried at room temperature for 1h before use. About 200 synchronized L1 worms were then placed on the seeded NGM plates and cultured at 20° C. Animals were screened after 54-56 hours. Worm developmental rates were determined by vulval development as previously described. To quantify the developmental rate, about 50 animals were scored under Nomarski microscope. To verify the genotypes of the 4 candidate Keio mutants, PCR were performed on each mutant colony and the control BW25113 strain using specific downstream genomic primers together with kanamycin-cassette-specific primers. […]
as §3

Phsp-6::gfp = assay: Mt stress/UPRmt reporter (Phsp-6::gfp) in worms; assay type: in vivo, C. elegans; conditions: worms fed PG mutant E. coli, supplement added
Experimental: as §1
PG isolation, enzyme treatment and supplementation assays: An adapted method was used to isolate peptidoglycan from bacterial cultures. In brief, bacterial pellets were resuspended in 1/10 vol 1M NaCl solution and boiled at 100° C. in a heating block for 1 h. […]
as §2, §3

ROS = ROS staining (H2DCFDA) in C. elegans; assay type: in vivo; conditions: worms fed erfK mutant E. coli
Experimental: ROS measurements in C. elegans: The ROS staining protocol was modified from. Briefly, L4 stage animals were collected and washed three times with M9 buffer to remove the bacteria. Then the worms were transferred into the staining solution (H2DCFDA, 50 uM in M9 buffer) and incubated for 30 min at 20° C. After washing twice with M9 buffer, worms were subjected to microscopic examination.

C. elegans [2] = assay: Food avoidance behavior assay; assay type: in vivo; conditions: worms fed PG mutant E. coli, supplement added
Experimental: Food avoidance behavior assay: Food avoidance behavior assay was determined using a method adapted from a published procedure (Kniazeva et al., 2015; Melo and Ruvkun, 2012). Briefly, overnight cultures of wild type and PG mutant E. coli were adjusted to the same OD600 and 20 μl of each culture was seeded on the center of 6 cm NGM plates. The seeded plates were dried at room temperature for 1 hour before use. About 100 synchronized L1 animals were then dropped onto the bacterial lawns and cultured for 45 hours at 20° C. The avoidance index was determined by Noff/on/Ntotal. Each assay was conducted in triplicate.
Heat-killed E. coli preparation and supplementation: We followed an established protocol to prepare heat-killed (HK) E. coli: standard overnight bacterial cultures were concentrated to 1/10 vol and were then heated in a 75° C. water bath for 90 min. For HK-E. coli supplementation, live E. coli and HK-E. coli were mixed at a 1:1 ratio then 20 μl (avoidance behavior assay) or 50 μl (other assays) mixtures were dropped on the NGM plates and dried at room temperature for 10 min before use. About 100-200 synchronized L1 animals were placed on the bacterial lawn to grow at 20° C.
PG isolation, enzyme treatment and supplementation assays: An adapted method was used to isolate peptidoglycan from bacterial cultures. […]

Structure (SMILES) | increase in SOD-3 level (SOD-3::GFP) (SOD-3::GFP) | growth delay (developmental delay) (C. elegans [1]) | Mt stress (Phsp-6::gfp) (Phsp-6::gfp) | ROS level (H2DCFDA staining) (ROS) | food avoidance behavior (C. elegans [2])
CC(=O)N[C@@H](CS)C(=O)O [NAC, N-acetyl-L-cysteine] | eliminated | significantly suppressed | significantly suppressed | suppressed | significantly suppressed
[Cl][Fe]([Cl])[Cl] [iron, FeCl3] | – | could not suppress | could not suppress | – | –
